In patent US20250268901A1, “CRYSTAL FORM OF AZETIDINE-SUBSTITUTED COMPOUND” (MEDSHINE DISCOVERY INC., priority 2020, published 2025):
Each block holds one compound with its values, some of them ahead of it.

Assays:
[1] = Solid stability of crystal form (XRPD and HPLC); format: physicochemical
Procedure: The purity and solubility of a sample are determined through a high performance liquid chromatograph Agilent 1260 HPLC.
To evaluate the solid stability of crystal form C of the compound of formula (I), crystal form C of the compound of formula (I) was subjected to stability testing under affecting factor conditions (high temperature, high humidity, and light), 60° C./75% RH conditions, and 40° C./75% RH conditions. Crystal form C was placed under a high-temperature condition (60° C., closed) and a high-humidity condition (92.5% RH, wrapped in a sealing film, with 5 small holes made) for 1 week and 2 weeks, placed in a closed container in visible light and ultraviolet light (a light-shielding control group was set at the same time, and the sample was wrapped in tinfoil) according to the ICH conditions (visible light illumination reached 1.2E+06 Lux hrs, and ultraviolet light illumination reached 200 W·hrs/m2), and meanwhile placed under 60° C./75% RH conditions (wrapped in a sealing film, with 5 small holes made) for 1 month and 2 months and under 40° C./75% RH conditions (wrapped in a sealing film, with 5 small holes made) for 1 month, 2 months, and 3 months. All the stability samples were tested for crystal form change by XRPD analysis and were analyzed by HPLC.

[2] = Pressure stability of crystal form (hydraulic press, XRPD); format: physicochemical
Procedure: The Hydraulic press experiment is carried out on an SYP-5BS manual press, and the pressure put on to the sample is about 350 MPa.
Crystal form C of the compound of formula (I) was added to a circular mold (6 mm in diameter) and pressurized to about 350 MPa. A small piece of the sheet-like sample was directly taken for XRPD analysis.

NCI-H358 cells = experiment: Cell proliferation assay (CellTiter-Glo), NCI-H358; format: cell-based, Human
Procedure: (§1) The effect of the compound on cell proliferation was examined on NC-H358, MA-PA-CA-2, A375, SW1463, and A427 cells.
Medium for H358 cell line: 89% RPMI1640 medium+10% fetal bovine serum+1% P/S
(§2) • 1. The medium and pancreatin used in the process of cell passaging were pre-heated in a water bath at 37° C. • 2. The cells were rinsed with pancreatin and digested with pancreatin until the cells were detached. A culture solution was added, and the cells and the culture solution were well mixed to stop the digestion. • 3. The cells were pipetted into a 15 mL centrifuge tube, 0.01 mL of cell suspension was pipetted onto a count plate, and cells were counted. • 4. According to the cell densities shown in the table below, a proper amount of each type of cells was transferred to a 15 mL centrifuge tube and made up to a volume of 9 mL with a corresponding cell culture solution.
• 5. […]
(§3) • 1. On the day of compound treatment, the day-0 test plate was removed from the incubator, 50 µL of Cell Titer Glo was added, and the plate was centrifuged at 1000 rpm for 10 s, shaken at room temperature for 10 min, then centrifuged again at 1000 rpm for 10 s, and read on Envision. • 2. […] To each well of the 96-well plates, 50 µL of Cell Titer-Glo was added, and the plates were centrifuged at 1000 rpm for 10 s, shaken at room temperature for 10 min, then centrifuged again at 1000 rpm for 10 s, and read on Envision. • 3. […]

A427 cells = experiment: Cell proliferation assay (CellTiter-Glo), A427; format: cell-based, Human
Procedure: as §1
Medium for A427 cell line: 89% EMEM medium+10% fetal bovine serum+1% P/S
as §2
• 5. […]
as §3

SW1463 cells = experiment: Cell proliferation assay (CellTiter-Glo), SW1463; format: cell-based, Human
Procedure: as §1
Medium for SW1463 cell line: 89% Leibovit2 sL-15 medium+10% fetal bovine serum+1% P/S
as §2, with “According to the cell densities shown in the table below, a proper amount of each type of cells was transferred to a 15 mL centrifuge tube and made up to a volume of 9 mL with a corresponding cell culture solution.” left out
as §3

MIA-PA-CA-2 cells = experiment: Cell proliferation assay (CellTiter-Glo), MIA-PA-CA-2; format: cell-based, Human
Procedure: as §1
Medium for MIA-PA-CA-2 cell line: 86.5% DMEM medium+10% fetal bovine serum+2.5% horse serum+1% P/S
as §2, with “According to the cell densities shown in the table below, a proper amount of each type of cells was transferred to a 15 mL centrifuge tube and made up to a volume of 9 mL with a corresponding cell culture solution.” left out
as §3

A375 cells = experiment: Cell proliferation assay (CellTiter-Glo), A375; format: cell-based, Human
Procedure: as §1
Medium for A375 cell line: 89% DMEM medium+10% fetal bovine serum+1% P/S
as §2
• 5. […]
as §3

[3] = system: pancreatic cancer MIA-Paca2 cell; settings: subcutaneous xenograft tumor model of pancreatic cancer MIA-Paca2 cell; cited from earlier work
KRAS G12C = settings: cited from earlier work
[4] = Light-shielding control group, simultaneously with visible + ultraviolet
[5] = Visible + ultraviolet (ICH conditions), 1.2E+06 Lux · hrs, 300 W · hrs/m^2

- Crystal form change ([1]; 40° C./75% RH, 1 month): Unchanged
- Purity (%) ([1]; 40° C./75% RH, 1 month): 98.00%
- Relative purity ([1]; 40° C./75% RH, 1 month): 100.2%
- Crystal form change ([1]; 40° C./75% RH, 2 months): Unchanged
- Purity (%) ([1]; 40° C./75% RH, 2 months): 97.92%
- Relative purity ([1]; 40° C./75% RH, 2 months): 100.1%
- Crystal form change ([1]; 40° C./75% RH, 3 months): Unchanged
- Purity (%) ([1]; 40° C./75% RH, 3 months): 98.02%
- Relative purity ([1]; 40° C./75% RH, 3 months): 100.2%
- Crystal form change ([1]; 60° C., closed, 1 week): Unchanged
- Purity (%) ([1]; 60° C., closed, 1 week): 97.99%
- Relative purity ([1]; 60° C., closed, 1 week): 100.1%
- Crystal form change ([1]; 60° C., closed, 2 weeks): Unchanged
- Purity (%) ([1]; 60° C., closed, 2 weeks): 97.98%
- Relative purity ([1]; 60° C., closed, 2 weeks): 100.1%
- Crystal form change ([1]; 60° C./75% RH, 1 month): Unchanged
- Purity (%) ([1]; 60° C./75% RH, 1 month): 97.92%
- Relative purity ([1]; 60° C./75% RH, 1 month): 100.1%
- Crystal form change ([1]; 60° C./75% RH, 2 months): Unchanged
- Purity (%) ([1]; 60° C./75% RH, 2 months): 97.98%
- Relative purity ([1]; 60° C./75% RH, 2 months): 100.1%
- Crystal form change ([1]; 92.5% RH, 1 week): Unchanged
- Purity (%) ([1]; 92.5% RH, 1 week): 98.03%
- Relative purity ([1]; 92.5% RH, 1 week): 100.2%
- Crystal form change ([1]; 92.5% RH, 2 weeks): Unchanged
- Purity (%) ([1]; 92.5% RH, 2 weeks): 98.00%
- Relative purity ([1]; 92.5% RH, 2 weeks): 100.2%
- Crystal form change [1, 4]: Unchanged
- Purity (%) [1, 4]: 98.00%
- Relative purity [1, 4]: 100.2%
- Crystal form change ([1]; Starting sample): Unchanged
- Purity (%) ([1]; Starting sample): 97.85%
- Crystal form change [1, 5]: Unchanged
- Purity (%) [1, 5]: 96.62%
- Relative purity [1, 5]: 98.7%
- solid stability (conclusion) ([1]; high temperature, high humidity, light, 60° C./75% RH, 40° C./75% RH): good solid stability
- pressure stability (conclusion) ([2]; about 350 MPa): good pressure stability
- crystal form change after being pressed (XRPD) ([2]; pressure of about 350 MPa): did not change
Structure (SMILES): C=CC(=O)N1CCN(c2nc(N3CC(N(CC)CC)C3)nc3c(=O)n(-c4c(N)c(Cl)cc(Cl)c4F)c(C(F)(F)F)cc23)CC1 [crystal form C]

- IC50 (NCI-H358 cells; Homo sapiens, NCI-H358, 120 h incubation, CellTiter-Glo): 13 ± 1.85 nM
- IC50 (SW1463 cells; Homo sapiens, SW1463, 144 h incubation, CellTiter-Glo): 112 ± 32.7 nM
- IC50 (MIA-PA-CA-2 cells; Homo sapiens, MIA PaCa-2, MIA-PA-CA-2, 72 h incubation, CellTiter-Glo): 34 ± 7.03 nM
- IC50 (A375 cells; Homo sapiens, A-375, A375, 72 h incubation, CellTiter-Glo): 4640 ± 89.8 nM
Structure (SMILES): C=CC(=O)N1CCN(c2nc(N3CC(N(CC)CC)C3)nc3c(=O)n(-c4c(N)c(Cl)cc(Cl)c4F)c(C(F)(F)F)cc23)CC1 [Compound of formula (I)]
- inhibitory activity against proliferation (NCI-H358 cells; human non-small cell lung cancer cell NCI-H358): good inhibitory activity
- IC50 (A427 cells; Homo sapiens, A-427, A427, 72 h incubation, CellTiter-Glo): > 6980 nM
- activity on cell (A427 cells; human lung cancer cell A427): weak activity
- inhibitory activity against proliferation (SW1463 cells; human rectal adenocarcinoma cell SW1463): good inhibitory activity
- inhibitory activity against proliferation (MIA-PA-CA-2 cells; pancreatic cancer cell MIA-PA-CA-2): good inhibitory activity
- activity on cell (A375 cells; melanoma cell A375): weak activity

Structure (SMILES): C=CC(=O)N1CCN(c2ncnc3c(F)c(-c4c(O)cccc4F)c(Cl)cc23)CC1 [ARS-1620]
- tumor growth inhibition [3]: can effectively inhibit tumor growth
- cell antiproliferative activity at the cellular level (KRAS G12C): nM level
